According to patent US8759104B2, “Cationic lipids” (The University Court of the University of Edinburgh, priority 2010, dated 2014):

The molecules below were run on HeLa cells (assay: Transfection of pEGFP-C1 reporter plasmid into HeLa cells, GFP expression by flow cytometry). Details: HeLa cells 48 h after transfection with reporter plasmid, flow cytometry.
Assay type: cell-based, human
Procedure: The corresponding cationic lipid (1 mM in methanol) were mixed in different proportions with DOPE (10 mg/mL in chloroform) and the organic solvent removed by evaporation in an oven (37° C.) overnight. The resultant thin films were then hydrated with PBS. The solutions were vortexed (10-20 s) and incubated at ambient temperature for 20 min. Plasmid DNA or siRNA solution (0.04 mg/mL in PBS or another isotonic solution) was subsequently added and the solution vortexed (10-20 s). The lipoplexes were incubated at room temperature for 20 min before being used.
Human HeLa cells were grown in RPMI supplemented with 4 mM glutamine, 10% FCS and 100 units/ml penicillin/streptomycin (RPMI-CM) until 80% confluence. HEK293 and B16F10 cells were grown in DMEM supplemented with 4 mM glutamine, 10% FCS and 100 units/ml penicillin/streptomycin (DMEM-CM) until 80% confluence. Cells were then suspended using trypsin/EDTA and counted. 2×10^4 cells in 150 μL of media per well were seeded in 96 well plates and incubated overnight. The day afterwards, the different lipoplex formulations were added. Each experiment was performed in quadruplicate, using Effectene® Transfection Reagent (Qiagen), Lipofectamine™ 2000 (Invitrogen) and Fugene (Roche) as positive controls and untreated cells as negative controls. After two days incubation at 37° C. and 5% CO2 (the change of media after transfection was not necessary), the green fluorescent protein (GFP) expression, as a consequence of transfecting the pEGFP-C1, was evidenced using a fluorescent microscope (Leica) and measured by flow cytometry. For the flow cytometry analysis, cells were washed twice with PBS, detached with trypsin/EDTA, harvested with 2% ferum bovine serum (FBS) in PBS, centrifuged and resuspended with 2% FBS in PBS and analyzed using a BD FACSaria flow cytometer. Transfection efficiency was measured as percentage of transfected cells.
Reagents that obtained greater than 50% transfection were also analyzed against HEK293 and B16F10 cell lines. Transfection results (+ percentages of transfection between 5-25%; ++ percentages of transfection between 25-50%; N.D. not determined). MTT toxicity assay results are indicated between brackets with 100% being cell viability of untreated cells.

SMILES | Transfection results (percentage of transfected cells), HeLa
CCCCCCCC/C=C\CCCCCCCC(=O)NCCCN(CCCNC(=O)CCCCCCC/C=C\CCCCCCCC)C(=O)CCC(=O)N[C@@H](CCCNC(=N)N)C(=O)N[C@@H](CCCNC(=N)N)C(N)=O.O=C(O)C(F)(F)F.O=C(O)C(F)(F)F [Compound A2-Sp3-O] | ++ (percentages of transfection between 25-50%)
CCCCCCCCCCCCCCCC(=O)NCCCN(CCCNC(=O)CCCCCCCCCCCCCCC)C(=O)CCC(=O)N[C@@H](CCCNC(=N)N)C(=O)N[C@@H](CCCNC(=N)N)C(N)=O.O=C(O)C(F)(F)F.O=C(O)C(F)(F)F [Compound A2-Sp3-P] | + (percentages of transfection between 5-25%)
CCCCCCCCCCCCCCCCCC(=O)NCCCN(CCCNC(=O)CCCCCCCCCCCCCCCCC)C(=O)CCC(=O)N[C@@H](CCCNC(=N)N)C(=O)N[C@@H](CCCNC(=N)N)C(N)=O.O=C(O)C(F)(F)F.O=C(O)C(F)(F)F [Compound A2-Sp3-S] | + (percentages of transfection between 5-25%)
CCCCCCCCCCCCCCCCCCCC(=O)NCCCN(CCCNC(=O)CCCCCCCCCCCCCCCCCCC)C(=O)/C=C\C(=O)N[C@@H](CCCNC(=N)N)C(=O)N[C@@H](CCCNC(=N)N)C(N)=O.O=C(O)C(F)(F)F.O=C(O)C(F)(F)F [Compound A2-Sp4-A] | + (percentages of transfection between 5-25%)
CCCCCCCCCCCCCCCCCCCCCCCC(=O)NCCCN(CCCNC(=O)CCCCCCCCCCCCCCCCCCCCCCC)C(=O)/C=C\C(=O)N[C@@H](CCCNC(=N)N)C(=O)N[C@@H](CCCNC(=N)N)C(N)=O.O=C(O)C(F)(F)F.O=C(O)C(F)(F)F [Compound A2-Sp4-L] | + (percentages of transfection between 5-25%)
CCCCCCCCCCCCCCCC(=O)NCCCN(CCCNC(=O)CCCCCCCCCCCCCCC)C(=O)/C=C\C(=O)N[C@@H](CCCNC(=N)N)C(=O)N[C@@H](CCCNC(=N)N)C(N)=O.O=C(O)C(F)(F)F.O=C(O)C(F)(F)F [Compound A2-Sp4-P] | + (percentages of transfection between 5-25%)
CCCCCCCCCCCCCCCCCC(=O)NCCCN(CCCNC(=O)CCCCCCCCCCCCCCCCC)C(=O)/C=C\C(=O)N[C@@H](CCCNC(=N)N)C(=O)N[C@@H](CCCNC(=N)N)C(N)=O.O=C(O)C(F)(F)F.O=C(O)C(F)(F)F [Compound A2-Sp4-S] | + (percentages of transfection between 5-25%)
CCCCCCCCCCCCCCCCCCCC(=O)NCCN(CCNC(=O)CCCCCCCCCCCCCCCCCCC)C(=O)CCC(=O)N[C@@H](CCCNC(=N)N)C(=O)N[C@@H](CCCNC(=N)N)C(=O)N[C@@H](CCCNC(=N)N)C(N)=O.O=C(O)C(F)(F)F.O=C(O)C(F)(F)F.O=C(O)C(F)(F)F [Compound A3-Sp1-A] | + (percentages of transfection between 5-25%)
CCCCCCCCCCCCCCCCCCCCCCCC(=O)NCCN(CCNC(=O)CCCCCCCCCCCCCCCCCCCCCCC)C(=O)CCC(=O)N[C@@H](CCCNC(=N)N)C(=O)N[C@@H](CCCNC(=N)N)C(=O)N[C@@H](CCCNC(=N)N)C(N)=O.O=C(O)C(F)(F)F.O=C(O)C(F)(F)F.O=C(O)C(F)(F)F [Compound A3-Sp1-L] | + (percentages of transfection between 5-25%)
CCCCCCCCCCCCCCCCCC(=O)NCCN(CCNC(=O)CCCCCCCCCCCCCCCCC)C(=O)CCC(=O)N[C@@H](CCCNC(=N)N)C(=O)N[C@@H](CCCNC(=N)N)C(=O)N[C@@H](CCCNC(=N)N)C(N)=O.O=C(O)C(F)(F)F.O=C(O)C(F)(F)F.O=C(O)C(F)(F)F [Compound A3-Sp1-S] | ++ (percentages of transfection between 25-50%)
CCCCCCCCCCCCCCCCCCCC(=O)NCCN(CCNC(=O)CCCCCCCCCCCCCCCCCCC)C(=O)/C=C\C(=O)N[C@@H](CCCNC(=N)N)C(=O)N[C@@H](CCCNC(=N)N)C(=O)N[C@@H](CCCNC(=N)N)C(N)=O.O=C(O)C(F)(F)F.O=C(O)C(F)(F)F.O=C(O)C(F)(F)F [Compound A3-Sp2-A] | + (percentages of transfection between 5-25%)
CCCCCCCCCCCCCCCCCCCCCCCC(=O)NCCN(CCNC(=O)CCCCCCCCCCCCCCCCCCCCCCC)C(=O)/C=C\C(=O)N[C@@H](CCCNC(=N)N)C(=O)N[C@@H](CCCNC(=N)N)C(=O)N[C@@H](CCCNC(=N)N)C(N)=O.O=C(O)C(F)(F)F.O=C(O)C(F)(F)F.O=C(O)C(F)(F)F [Compound A3-Sp2-L] | + (percentages of transfection between 5-25%)
CCCCCCCC/C=C\CCCCCCCC(=O)NCCN(CCNC(=O)CCCCCCC/C=C\CCCCCCCC)C(=O)/C=C\C(=O)N[C@@H](CCCNC(=N)N)C(=O)N[C@@H](CCCNC(=N)N)C(=O)N[C@@H](CCCNC(=N)N)C(N)=O.O=C(O)C(F)(F)F.O=C(O)C(F)(F)F.O=C(O)C(F)(F)F [Compound A3-Sp2-O] | ++ (percentages of transfection between 25-50%)
CCCCCCCCCCCCCCCCCC(=O)NCCN(CCNC(=O)CCCCCCCCCCCCCCCCC)C(=O)/C=C\C(=O)N[C@@H](CCCNC(=N)N)C(=O)N[C@@H](CCCNC(=N)N)C(=O)N[C@@H](CCCNC(=N)N)C(N)=O.O=C(O)C(F)(F)F.O=C(O)C(F)(F)F.O=C(O)C(F)(F)F [Compound A3-Sp2-S] | ++ (percentages of transfection between 25-50%)
CCCCCCCCCCCCCCCCCCCC(=O)NCCCN(CCCNC(=O)CCCCCCCCCCCCCCCCCCC)C(=O)CCC(=O)N[C@@H](CCCNC(=N)N)C(=O)N[C@@H](CCCNC(=N)N)C(=O)N[C@@H](CCCNC(=N)N)C(N)=O.O=C(O)C(F)(F)F.O=C(O)C(F)(F)F.O=C(O)C(F)(F)F [Compound A3-Sp3-A] | + (percentages of transfection between 5-25%)
CCCCCCCCCCCCCCCCCCCCCCCC(=O)NCCCN(CCCNC(=O)CCCCCCCCCCCCCCCCCCCCCCC)C(=O)CCC(=O)N[C@@H](CCCNC(=N)N)C(=O)N[C@@H](CCCNC(=N)N)C(=O)N[C@@H](CCCNC(=N)N)C(N)=O.O=C(O)C(F)(F)F.O=C(O)C(F)(F)F.O=C(O)C(F)(F)F [Compound A3-Sp3-L] | + (percentages of transfection between 5-25%)
CCCCCCCC/C=C\CCCCCCCC(=O)NCCCN(CCCNC(=O)CCCCCCC/C=C\CCCCCCCC)C(=O)CCC(=O)N[C@@H](CCCNC(=N)N)C(=O)N[C@@H](CCCNC(=N)N)C(=O)N[C@@H](CCCNC(=N)N)C(N)=O.O=C(O)C(F)(F)F.O=C(O)C(F)(F)F.O=C(O)C(F)(F)F [Compound A3-Sp3-O] | ++ (percentages of transfection between 25-50%)
CCCCCCCCCCCCCCCC(=O)NCCCN(CCCNC(=O)CCCCCCCCCCCCCCC)C(=O)CCC(=O)N[C@@H](CCCNC(=N)N)C(=O)N[C@@H](CCCNC(=N)N)C(=O)N[C@@H](CCCNC(=N)N)C(N)=O.O=C(O)C(F)(F)F.O=C(O)C(F)(F)F.O=C(O)C(F)(F)F [Compound A3-Sp3-P] | ++ (percentages of transfection between 25-50%)
CCCCCCCCCCCCCCCCCC(=O)NCCCN(CCCNC(=O)CCCCCCCCCCCCCCCCC)C(=O)CCC(=O)N[C@@H](CCCNC(=N)N)C(=O)N[C@@H](CCCNC(=N)N)C(=O)N[C@@H](CCCNC(=N)N)C(N)=O.O=C(O)C(F)(F)F.O=C(O)C(F)(F)F.O=C(O)C(F)(F)F [Compound A3-Sp3-S] | + (percentages of transfection between 5-25%)
CCCCCCCCCCCCCCCCCCCC(=O)NCCCN(CCCNC(=O)CCCCCCCCCCCCCCCCCCC)C(=O)/C=C\C(=O)N[C@@H](CCCNC(=N)N)C(=O)N[C@@H](CCCNC(=N)N)C(=O)N[C@@H](CCCNC(=N)N)C(N)=O.O=C(O)C(F)(F)F.O=C(O)C(F)(F)F.O=C(O)C(F)(F)F [Compound A3-Sp4-A] | + (percentages of transfection between 5-25%)
CCCCCCCCCCCCCCCCCCCCCCCC(=O)NCCCN(CCCNC(=O)CCCCCCCCCCCCCCCCCCCCCCC)C(=O)/C=C\C(=O)N[C@@H](CCCNC(=N)N)C(=O)N[C@@H](CCCNC(=N)N)C(=O)N[C@@H](CCCNC(=N)N)C(N)=O.O=C(O)C(F)(F)F.O=C(O)C(F)(F)F.O=C(O)C(F)(F)F [Compound A3-Sp4-L] | ++ (percentages of transfection between 25-50%)
CCCCCCCC/C=C\CCCCCCCC(=O)NCCCN(CCCNC(=O)CCCCCCC/C=C\CCCCCCCC)C(=O)/C=C\C(=O)N[C@@H](CCCNC(=N)N)C(=O)N[C@@H](CCCNC(=N)N)C(=O)N[C@@H](CCCNC(=N)N)C(N)=O.O=C(O)C(F)(F)F.O=C(O)C(F)(F)F.O=C(O)C(F)(F)F [Compound A3-Sp4-O] | + (percentages of transfection between 5-25%)
CCCCCCCCCCCCCCCC(=O)NCCCN(CCCNC(=O)CCCCCCCCCCCCCCC)C(=O)/C=C\C(=O)N[C@@H](CCCNC(=N)N)C(=O)N[C@@H](CCCNC(=N)N)C(=O)N[C@@H](CCCNC(=N)N)C(N)=O.O=C(O)C(F)(F)F.O=C(O)C(F)(F)F.O=C(O)C(F)(F)F [Compound A3-Sp4-P] | + (percentages of transfection between 5-25%)
